Measurements reported in PMC3570965 (Science translational medicine, 2012).
Where two headings read alike, the source gives them in different places.

What was measured:
[1] = cited from earlier work
[2] = Pharmacokinetic analyses in NOD/SCID mice; assay type: in vivo
[3] = test system: ccRCC tumorgraft lines; test: Drug trials in subcutaneous ccRCC tumorgraft lines; assay type: in vivo, NOD/SCID mice; settings: 4 ccRCC tumorgraft lines; dovitinib 30 mg/kg by gavage
[4] = test system: papillary RCC tumorgraft line (TG121); test: Drug trial in papillary RCC tumorgraft line TG121; assay type: in vivo, NOD/SCID mice; settings: dovitinib 30 mg/kg by gavage
[5] = test system: TG144 tumorgraft-bearing mice; test: Serum calcium; assay type: in vivo, NOD/SCID mice; settings: TG144, end of trial
[6] = test system: ccRCC; settings: patients with ccRCC, randomized phase II trial; cited from earlier work
[7] = test system: NSCLC cell line-derived xenograft; test: NSCLC; assay type: in vivo, mice; settings: same erlotinib regimen (12.5 mg/kg by gavage every 12 h)

CO[C@H]1C[C@@H]2CC[C@@H](C)[C@@](O)(O2)C(=O)C(=O)N2CCCC[C@H]2C(=O)O[C@H]([C@H](C)C[C@@H]2CC[C@@H](OCCO)[C@H](OC)C2)CC(=O)[C@H](C)/C=C(\C)[C@@H](O)[C@@H](OC)C(=O)[C@H](C)C[C@H](C)/C=C/C=C/C=C/1C [Everolimus]
Cmin ([1]; human, 10 mg PO qd, analyte Everolimus, mean ± SD, ref Awada et al., 2008): 13.2 ± 7.2 ng/mL

CCNCCNC(=O)c1c(C)[nH]c(/C=C2\C(=O)Nc3ccc(F)cc32)c1C [desethyl sunitinib]
metabolite as share of total circulating drug ([2]; NOD/SCID mice, day 1, after sunitinib): 38%
metabolite as share of total circulating drug ([1]; humans, day 1, after sunitinib, ref Table 6): 13%

CN1CCN(c2ccc3nc(-c4c(N)c5c(F)cccc5[nH]c4=O)[nH]c3c2)CC1 [dovitinib]
effect on ccRCC tumorgraft growth [3]: profoundly suppressed
activity in papillary RCC tumorgraft line [4]: very active
peak and overall exposures compared with humans ([2]; dovitinib 30 mg/kg daily by gavage, mice): within the range reported in humans
Terminal t1/2 ([1]; human, 500 mg PO qd, PK data at (D15), analyte Dovitinib, ref Kim, et al 2011): 21 h
effect on paraneoplastic hypercalcemia (serum calcium) [5]: inhibited the development of paraneoplastic hypercalcemia

C#Cc1cccc(Nc2ncnc3cc(OCCOC)c(OCCOC)cc23)c1 [erlotinib]
outcomes in combination with bevacizumab vs bevacizumab alone [6]: failed to show improved outcomes
effect on NSCLC cell line-derived xenograft growth [7]: profound effect
peak and overall exposures compared with humans ([2]; erlotinib 12.5 mg/kg by gavage every 12 h, mice): higher
half-life ([1]; humans): 24 h

CO[C@H]1C[C@@H]2CC[C@@H](C)[C@@](O)(O2)C(=O)C(=O)N2CCCC[C@H]2C(=O)O[C@H]([C@H](C)C[C@@H]2CC[C@@H](O)[C@H](OC)C2)CC(=O)[C@H](C)/C=C(\C)[C@@H](O)[C@@H](OC)C(=O)[C@H](C)C[C@H](C)/C=C/C=C/C=C/1C [sirolimus]
peak and overall exposures, fold higher than in humans ([2]; sirolimus 0.5 mg/kg intraperitoneally every 48 h, NOD/SCID mice vs humans): 2-3 fold
share of circulating drug after temsirolimus administration ([1]; humans, after temsirolimus administration): 75%
therapeutic range (trough levels) in humans ([1]; humans): 5 to 15 ng/mL

CCN(CC)CCNC(=O)c1c(C)[nH]c(/C=C2\C(=O)Nc3ccc(F)cc32)c1C [sunitinib]
peak exposures compared with humans ([2]; sunitinib 10 mg/kg by gavage every 12 h, mice): slightly higher than in humans
half-life compared with humans ([2]; sunitinib, mice vs humans): much shorter in mice
